Laboratory results from the supplement of paper PMC13380429.

Legend:
Conditions in all cases: 72 h
Caco-2 [1] = test: cell viability relative to DMSO; higher = less toxic
Calu-3 [2] = test: as above
Vero E6 [3] = test: as above
HepG2 [4] = test: as above
U2OS [5] = test: as above
Caco-2 [6] = test: relative viability EC50 (midpoint between 100% and the lowest measured viability); higher = less toxic
Calu-3 [7] = test: as above
Vero E6 [8] = test: as above
HepG2 [9] = test: as above
U2OS [10] = test: as above
Caco-2 [11] = test: drug sensitivity score (DSS) for viability; higher = more toxic; extreme values may be limits of the assay
Calu-3 [12] = test: as above
Vero E6 [13] = test: as above
HepG2 [14] = test: as above
U2OS [15] = test: as above

Compound | cell viability (Caco-2 [1]; 1 nM) [%] | cell viability (Caco-2 [1]; 10 nM) [%] | cell viability (Caco-2 [1]; 100 nM) [%] | cell viability (Caco-2 [1]; 1000 nM) [%] | cell viability (Caco-2 [1]; 10000 nM) [%] | cell viability (Calu-3 [2]; 1 nM) [%] | cell viability (Calu-3 [2]; 10 nM) [%] | cell viability (Calu-3 [2]; 100 nM) [%] | cell viability (Calu-3 [2]; 1000 nM) [%] | cell viability (Calu-3 [2]; 10000 nM) [%] | cell viability (Vero E6 [3]; 1 nM) [%] | cell viability (Vero E6 [3]; 10 nM) [%] | cell viability (Vero E6 [3]; 100 nM) [%] | cell viability (Vero E6 [3]; 1000 nM) [%] | cell viability (Vero E6 [3]; 10000 nM) [%] | cell viability (HepG2 [4]; 1 nM) [%] | cell viability (HepG2 [4]; 10 nM) [%] | cell viability (HepG2 [4]; 100 nM) [%] | cell viability (HepG2 [4]; 1000 nM) [%] | cell viability (HepG2 [4]; 10000 nM) [%] | cell viability (U2OS [5]; 1 nM) [%] | cell viability (U2OS [5]; 10 nM) [%] | cell viability (U2OS [5]; 100 nM) [%] | cell viability (U2OS [5]; 1000 nM) [%] | cell viability (U2OS [5]; 10000 nM) [%] | relative viability EC50 (Caco-2 [6]) [µM] | relative viability EC50 (Calu-3 [7]) [µM] | relative viability EC50 (Vero E6 [8]) [µM] | relative viability EC50 (HepG2 [9]) [µM] | relative viability EC50 (U2OS [10]) [µM] | drug sensitivity score (Caco-2 [11]) | drug sensitivity score (Calu-3 [12]) | drug sensitivity score (Vero E6 [13]) | drug sensitivity score (HepG2 [14]) | drug sensitivity score (U2OS [15])
CCC/C=C1\OC(=O)C2=C1CCC=C2 [ligustilide] | 100 | 104 | 113 | 122 | 83.6 | 100 | 88.8 | 103 | 101 | 106 | 93.8 | 101 | 102 | 100 | 106 | 106 | 106 | 111 | 94.6 | 110 | 96.2 | 101 | 101 | 95.4 | 94.7 | > 10 | > 10 | > 10 | > 10 | > 10 | 0.1 | 0 | 0 | 0 | 0
CCO[C@@H](Cc1ccc(OCCc2ccc(OS(C)(=O)=O)cc2)cc1)C(=O)O [tesaglitazar] | 101 | 86 | 94.1 | 100 | 99.2 | 105 | 104 | 97.9 | 113 | 110 | 99.2 | 99.5 | 96 | 81.9 | 82.6 | 101 | 96.7 | 104 | 91.1 | 98.1 | 100 | 95.9 | 95.7 | 101 | 105 | > 10 | > 10 | > 10 | > 10 | > 10 | 0 | 0 | 2.7 | 0 | 0
CC1(C)C(/C=C/C=C/C=C/C=C2\N(CCCCS(=O)(=O)O)c3ccc4ccccc4c3C2(C)C)=[N+](CCCCS(=O)(=O)[O-])c2ccc3ccccc3c21 [indocyanine-green] | 98.2 | 87.1 | 105 | 94.8 | 86.9 | 98.6 | 108 | 91.6 | 96 | 88.3 | 96.5 | 99.4 | 102 | 101 | 94.1 | 93.1 | 89.4 | 106 | 94.9 | 94.5 | 105 | 101 | 97.4 | 99.1 | 95.4 | > 10 | > 10 | > 10 | > 10 | > 10 | 0.4 | 0 | 0 | 0 | 0
Cc1ccc(-c2ncc[nH]2)cc1NC(=O)c1ccc(OCc2ccccn2)cc1 | 101 | 101 | 105 | 96.7 | 85.2 | 91 | 97.8 | 96.6 | 89.1 | 101 | 100 | 104 | 99.2 | 99.2 | 90 | 103 | 103 | 97.7 | 96 | 94.7 | 96.5 | 98 | 100 | 97.1 | 99.2 | > 10 | > 10 | > 10 | > 10 | > 10 | 0.5 | 0 | 0 | 0 | 0
CCCC(O)C(CC)CO (configuration not stated) [2-ethyl-1,3-hexanediol] | 106 | 88.9 | 101 | 93.9 | 93.3 | 105 | 101 | 102 | 94.6 | 103 | 95.5 | 102 | 101 | 104 | 75.5 | 78.7 | 105 | 98.8 | 81.1 | 101 | 102 | 99.1 | 95.9 | 97.8 | 102 | > 10 | > 10 | > 10 | > 10 | > 10 | 0 | 0 | 0.7 | 0 | 0
CC(=O)Nc1c(I)cc(I)c(C(=O)O)c1I [acetriazoic-acid] | 91.2 | 92 | 96.3 | 97.8 | 102 | 98.6 | 95.3 | 95.1 | 99.4 | 97.1 | 93.2 | 99 | 93.8 | 98.4 | 102 | 96.6 | 92.1 | 89.9 | 95.8 | 107 | 94.2 | 92.4 | 98.7 | 97.2 | 98.2 | > 10 | > 10 | > 10 | > 10 | > 10 | 0 | 0 | 0 | 0 | 0
CCOC(=O)[C@H](CCc1ccccc1)N[C@@H](C)C(=O)N1[C@H](C(=O)O)C[C@H]2CCCC[C@@H]21 [trandolapril] | 93.1 | 86 | 83.2 | 89.6 | 100 | 106 | 98 | 102 | 108 | 102 | 91.6 | 97.3 | 89.6 | 96.1 | 107 | 90.7 | 104 | 96.4 | 100 | 108 | 97.6 | 92.6 | 98.5 | 96 | 99.4 | > 10 | > 10 | > 10 | > 10 | > 10 | 0.4 | 0 | 0 | 0 | 0
C[C@@H]1CC[C@H]2[C@@H](C)C(=O)O[C@@H]3O[C@@]4(C)CC[C@@H]1[C@]32OO4 [artemisinin] | 95.6 | 104 | 102 | 91.4 | 81.6 | 101 | 102 | 99.5 | 95.4 | 97.5 | 97.5 | 95.4 | 98 | 96.9 | 100 | 97.3 | 93.1 | 88.7 | 86.1 | 77.1 | 96.9 | 99.8 | 94.6 | 91.1 | 78.6 | > 10 | > 10 | > 10 | > 10 | > 10 | 1.3 | 0 | 0 | 2.5 | 1.1
COc1ccccc1N1CCN(CCN2C(=O)CC3(CCCC3)CC2=O)CC1 [BMY-7378] | 89 | 93.9 | 97.5 | 97.3 | 103 | 92.7 | 95.2 | 109 | 110 | 106 | 97.3 | 95.6 | 99.9 | 90.1 | 106 | 106 | 102 | 105 | 98.4 | 108 | 93.5 | 100 | 96.3 | 95.8 | 102 | > 10 | > 10 | > 10 | > 10 | > 10 | 0 | 0 | 0 | 0 | 0
CC(C)C[C@@H](NC(=O)[C@H](C)NC(=O)CNC(=O)[C@@H](NC=O)C(C)C)C(=O)N[C@@H](C)C(=O)N[C@@H](C(=O)N[C@H](C(=O)N[C@@H](C(=O)N[C@@H](Cc1c[nH]c2ccccc12)C(=O)N[C@H](CC(C)C)C(=O)N[C@@H](Cc1c[nH]c2ccccc12)C(=O)N[C@H](CC(C)C)C(=O)N[C@@H](Cc1c[nH]c2ccccc12)C(=O)N[C@H](CC(C)C)C(=O)N[C@@H](Cc1c[nH]c2ccccc12)C(=O)NCCO)C(C)C)C(C)C)C(C)C [gramicidin] | 90 | 118 | 54.6 | 106 | 90.7 | 109 | 94.2 | 87.9 | 95.7 | 42.9 | 99.2 | 94.3 | 94 | 92.5 | 98.3 | 101 | 100 | 26.4 | 114 | 121 | 97.5 | 94.3 | 32.4 | 97.4 | 20.3 | > 10 | 2.55 | > 10 | > 10 | 0.466 | 0 | 3.7 | 0 | 0 | 12.3
CCC(=O)NS(=O)(=O)c1ccc(-c2c(-c3ccccc3)noc2C)cc1 [parecoxib] | 99.5 | 96 | 96.6 | 98.9 | 95.7 | 106 | 94.3 | 94.4 | 92.5 | 108 | 97.7 | 101 | 95.6 | 95.6 | 93.6 | 88.9 | 90 | 94 | 94.2 | 90.1 | 103 | 113 | 103 | 94.1 | 99.2 | > 10 | > 10 | > 10 | > 10 | > 10 | 0 | 0 | 0 | 0 | 0
N=C(N)SCCc1c[nH]cn1 [imetit] | 97.2 | 99.1 | 97 | 100 | 93.5 | 97.8 | 109 | 97 | 93.7 | 87.8 | 103 | 103 | 103 | 97.1 | 101 | 112 | 111 | 95.9 | 95.2 | 112 |  |  |  |  |  | > 10 | > 10 | > 10 | > 10 |  | 0 | 0.1 | 0 | 0 | 
O=c1[nH]nc2c3c(cccc13)N=C(CN1Cc3ccccc3C1)N2 [E7449] | 127 | 104 | 102 | 99 | 89.1 | 109 | 99.1 | 98.6 | 97.6 | 88.6 | 102 | 100 | 96.3 | 96.3 | 83.7 | 95 | 103 | 98.6 | 95.9 | 59.8 | 105 | 106 | 106 | 94.7 | 87.3 | > 10 | > 10 | > 10 |  | > 10 | 0 | 0.1 | 0.6 | 2.7 | 0.3
Cc1ccc(Nc2c(F)cccc2Cl)c(CC(=O)O)c1 [lumiracoxib] | 93 | 97 | 95 | 100 | 107 | 93.7 | 93.9 | 90.8 | 98.9 | 104 | 95.4 | 94.8 | 105 | 100 | 100 | 97 | 103 | 109 | 106 | 118 | 94.1 | 98.7 | 94.8 | 103 | 105 | > 10 | > 10 | > 10 | > 10 | > 10 | 0 | 0 | 0 | 0 | 0
